Tests used:
human V1a receptor = target: T1, human V1a receptor (Homo sapiens, UniProt P37288); test: Human vasopressin V1a receptor binding assay; details: selectivity table; read-out: inhibition data Ki, V1a
T1 construct: host or cells: CHO cells
Summary of the method: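 Whole CHO cells expressing human V1a incubated with 1 nM 3H-AVP and 10-fold compound dilutions in 25 mM Hepes, 0.25% BSA, DMEM pH 7.0 for 45 min at 37 °C. Nonspecific binding with 100 nM unlabelled AVP. Cells SDS-lysed, scintillation counted; IC50 by curve fitting.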

Male Sprague Dawley rats [1] = test: Treatment in the momentum exchange impact model; assay type: in vivo, rat; details: concussed rats, two head impacts; IP 10 mg/kg twice daily 5 days; two weeks post impact; vs sham Control
Protocol: EXAMPLE. Momentum exchange impact model. This model features several advantageous translational differences over some head injury models, such as the controlled cortical impact injury model. For example, the head, neck and body can move with impact, and the velocity of head movement and energy transfer can be calculated and scaled mild to provide range from moderate to severe concussions. Studies are conducted with moderate impacts with neuroradiological evidence of contusions. Male rats are concussed twice with one day. Additional details are described in Viano et al., “Evaluation of three animal models for concussion and serious brain injury” Ann Biomed Eng. 40(1):213-26 (2012). […] Sham non-concussed test animals are given vehicle or test compound. Test animals are treated twice daily for 5 consecutive days. At two weeks post concussion cognitive behaviors are assessed, using for example, the Barnes maze and/or novel recognition models. In addition, motor behaviors are assessed, using for example, beam walk and/or rotarod tests. […]
The pneumatic pressure drive is replicated, 50 g compactor, as described by Viano and reproduced consistently, the 7.4, 9.3, and 11.2 m/s impact velocities described for mild, medium, and severe head injury, respectively. The data described herein are obtained from a 9.12 meters/sec impact velocity, as determined using high-speed video recordings. […]

Male Sprague Dawley rats [2] = test: Novel Object Recognition test (momentum exchange impact model); assay type: in vivo, rat
Protocol: (§1) EXAMPLE. Momentum exchange impact model. This model features several advantageous translational differences over some head injury models, such as the controlled cortical impact injury model. For example, the head, neck and body can move with impact, and the velocity of head movement and energy transfer can be calculated and scaled mild to provide range from moderate to severe concussions. Studies are conducted with moderate impacts with neuroradiological evidence of contusions. Male rats are concussed twice with one day. Additional details are described in Viano et al., “Evaluation of three animal models for concussion and serious brain injury” Ann Biomed Eng. 40(1):213-26 (2012). […] Sham non-concussed test animals are given vehicle or test compound. Test animals are treated twice daily for 5 consecutive days. At two weeks post concussion cognitive behaviors are assessed, using for example, the Barnes maze and/or novel recognition models. In addition, motor behaviors are assessed, using for example, beam walk and/or rotarod tests. In each case, neuroradiological MRI is also performed.
(§2) Beginning on postnatal (P)70, animals are divided into 3 groups (n=6-7/group; Sham Control Group (Control, CG), Injury Group (IG), and Treatment Group (TG) and begin their head impact, and drug regimens. All groups are anaesthetized with 4% isoflurane in oxygen, and Injury group and Treatment group receive the first of two total head impacts) using a custom setup from Animal Imaging Research (AIR; Holden, Mass.) on P70. The day after the first impact (P71), test compound, such as AVN576, is administered to the Treatment group and the Sham Control group. In addition, a vehicle only control group (VCG) is administered saline. All administrations re administered to the Control and Treatment groups twice per day at 0700 and 1400 (IP @10 mg/kg). The drug regimen is continued over the following 4 days (5 days total). The second head impact is delivered two days following the first on P72. Two weeks post impact, animals are imaged and tested for cognitive and motor behaviors. In all evaluations made, there was not a significant difference between the sham control group (CG) receiving test compounds and vehicle-only sham control group (VCG) receiving vehicle.
EXAMPLE. Novel Object Recognition test results. This test assesses episodic learning and memory-related stimulus recognition.

Male Sprague Dawley rats [3] = test: Barnes Maze test (momentum exchange impact model); assay type: in vivo, rat
Protocol: as §1, §2
EXAMPLE. Barnes Maze test results. This test assesses spatial learning and memory.

Male Sprague Dawley rats [4] = test: Edema and ventricular volumes (T2 relaxometry MRI); assay type: in vivo, rat; details: Treatment group; no significant difference to Control group
Protocol: EXAMPLE. T2 Relaxometry measurement of edema. MRI was conducted 24-28 days after the injury to characterize edematous volume in the lateral ventricles using T2 relaxometry. The time of imaging was based on the rat model used for TBI assessment by Charles River. Images are acquired using a multi-slice multi-echo (MSME) pulse sequence. The echo time (TE) is illustratively 11 ms, and 16 echoes are acquired during imaging with a recovery time (TR) of 2500 ms. Images are acquired with a field of view [FOV] 3 cm^2, data matrix=256×256×20 slices, thickness=1 mm. Values for […] relaxation time (T2) are obtained from all the slices using ParaVison 5.1 software. T2 is used to characterize the edematous volume in the lateral ventricle. The T2 values are used for segmentation and quantification of the ventricle volume. The T2 values are computed using the equation; y=A+Cexp (−t/T2) (S.D. weighted) obtained from the Paravision 5.1 software, where, A=absolute bias, C=signal intensity, t=echo time and T2=spin-spin relaxation time. The ventricle is identified as a hyperintensity on the T2 map over three 1 mm sections. The volume is calculated using a snake region growth algorithm in itk-SNAP (www.itksnap.org). The threshold is illustratively set at 6300 to 9000 as absolute pixel intensity. A point is seeded within the ventricle and the algorithm run until segmentation is complete. […]

T1 sequence (P37288 whole entry): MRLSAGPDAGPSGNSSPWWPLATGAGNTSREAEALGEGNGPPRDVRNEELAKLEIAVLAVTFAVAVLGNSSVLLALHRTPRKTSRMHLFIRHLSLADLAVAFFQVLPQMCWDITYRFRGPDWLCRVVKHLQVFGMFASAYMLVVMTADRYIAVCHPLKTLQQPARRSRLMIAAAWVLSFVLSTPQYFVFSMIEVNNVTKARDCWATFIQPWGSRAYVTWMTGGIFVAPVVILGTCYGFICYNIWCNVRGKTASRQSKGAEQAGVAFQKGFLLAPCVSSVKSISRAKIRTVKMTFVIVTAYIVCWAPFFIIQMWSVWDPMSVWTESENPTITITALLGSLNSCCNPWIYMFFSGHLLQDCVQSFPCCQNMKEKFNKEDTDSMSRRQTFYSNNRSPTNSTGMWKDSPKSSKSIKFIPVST

## C[C@@H](NC(=O)[C@@H](CC(=O)N1CCC(N2CCCCC2)CC1)N1C(=O)[C@@H](N2C(=O)OC[C@@H]2c2ccccc2)[C@H]1/C=C/c1cccc(I)c1)c1ccccc1 [Example 266]
Human V1a receptor
  Ki: 1.1 nM
Male Sprague Dawley rats [1]
  deficits in learning and memory: no deficits in learning and memory
Male Sprague Dawley rats [2]; Treatment group P=0.003
  percentage of time with the novel object compared to the Injury group: significantly longer percentage of time
Male Sprague Dawley rats [2]; Treatment group P=0.02
  total time with the novel object compared to the Injury group: significantly more total time
Male Sprague Dawley rats [2]; Treatment group P=0.06
  exploration index (exploration instances) compared to the Injury group: only a trend towards significance
Male Sprague Dawley rats [2]; Treatment group, t(5)=2.61, p<0.05, IP 10 mg/kg twice daily 5 days
  time investigating the novel object (recognition index) compared to chance: significantly greater than a chance amount of time
Male Sprague Dawley rats [3]; P=0.03
  distance traveled before finding the goal box: Injury group relative to Treatment group: significantly greater distance
  error duration (time exploring wrong holes): Injury group relative to Treatment group: significantly more time exploring the wrong holes
Male Sprague Dawley rats [3]; Treatment group, did not differ from control group
  deficits in learning and memory, Barnes maze: did not show any deficits in learning and memory
Male Sprague Dawley rats [3]; collapsed across acquisition days, P=0.04
  latency to find the goal box: Injury group relative to Treatment group: longer latencies to find the goal box
Male Sprague Dawley rats [4]
  volume of lateral ventricles at the level of impact: ventricular volume returns to normal levels

— patent US11628160B2, “Compositions and methods for treating brain injury” (Azevan Pharmaceuticals, Inc., priority 2017, dated 2023)
